Experimental data: patent US4756904A (Oak Ridge Associated Universities, Inc., priority 1986, dated 1988)

Tested on: myocardium
Description: Sixteen closed-chest studies were performed in 6 healthy, adult mongrel dogs of both sexes weighing 15 to 30 kg. The dogs were maintained on a standard laboratory diet which was discontinued 24 hours prior to study. The animals were anesthetized using a combination of xylazine and sodium pentobarbital. Transmission cross-sectional scans of the chest area were performed on each dog with an ECAT II scanner using a ^68 Ge ring source with medium resolution filters and standard shadow shields. Measured attenuation coefficients were used for reconstructing the emission tomographs. […] Serial scans of the heart from base to apex in 10-15 mm steps were made starting 3-5 minutes after injection. After each series was completed, the ECAT II bed was returned to the original position and the dogs were rescanned. This procedure was repeated over a 2 to 4 hour period. Each set of scans required approximately 1 hour for 6 slices, so that 2 to 4 sets of images were obtained in each study. Sequential images were also obtained through a 20-mm section of the heart over a 2-hour period. Additional images from 1 dog were obtained using the new high-resolution ECAT III scanner. […] The animals were injected through a cannula or catheter in the leg and heparanized venous blood samples were removed from the opposite side. Known aliquots of whole blood, plasma, and erythrocytes were assayed in a well-type scintillation counter to determine the ^64 Cu levels present in the different components.

How did the “image quality with the PET” value (^64 Cu citrate, PET) turn out when copper-64 citrate [^64 Cu citrate] was run?
Its value is “unexpectedly distinct image”.

What about the “useful images of the myocardium” value (dog) of the same substance?
The value was “yields useful images of the myocardium”.

What about the “uptake by the myocardium” value (dog, intravenous, tomographic images) of the same substance?
The value was “rapid and uniform uptake of the compound throughout the myocardium”.

What about the “uptake by myocardial tissue over time” value (dog, over the time periods studied) of the same substance?
The value was “occurs quite rapidly and remains constant over the time periods studied”.

What about the “visibility of the left ventricle in the emission scan” value (dog, transverse section) of the same substance?
The value was “very distinctly”.

And the “visibility of the right ventricle in the emission scan” value (dog, transverse section)?
Its value is “less clearly seen”.
